{"source": "patent US12480163B2", "about": "“Compositions and methods for identification assessment, prevention, and treatment of Ewing sarcoma using TP53 dependency biomarkers and modulators” (Dana-Farber Cancer Institute, Inc., priority 2018, dated 2025)", "system": "TC32 xenograft tumors", "assay": "TC32 Ewing sarcoma xenograft anti-tumor efficacy study", "format": "in vivo, mice", "details": "30 mg/kg IV every other day for 20 d (10 doses) vs vehicle", "experimental": "j. Ewing Sarcoma Xenograft Studies\nFor anti-tumor efficacy studies, tumor xenografts were established in 15 nude female mice by implanting three million TC32 cells into the right flank. Animals were randomized to either 20 d of treatment with 30 mg/kg q.o.d. IV ATSP-7041 (n=8) or vehicle (n=7) for a total of 10 doses. Treatment was started when tumors reached 100-200 mm3. Tumor volumes were measured with calipers twice a week. For PDX studies, tumor fragments were implanted into the right flank of nude female mice by minor surgery. After tumor engraftment, studies were performed as described for TC32 xenograft studies.\nFor in vivo studies, ATSP-7041 was prepared using the following protocol: mPEG-DSPE (Nanocs) was dissolved in chloroform and dried by a rotary evaporator. ATSP-7041 was dissolved in 1 M NaOH and diluted 100-fold in 10 mM histidine-buffered saline to a final concentration of 3 mg/ml. This mixture was added to the dried lipid film to a final mPEG-DSPE concentration of 50 mg/ml and final pH 7. The film was rehydrated by brief sonication and heating in a 50° C. water bath. The mixture was then subjected to five freeze-thaw cycles in liquid nitrogen and 40° C. water, respectively, and the solution passed 10 times through an Avanti Mini-Extruder Set (Avanti Polar Lipids) equipped with a 800-nm filter (Whatman)."}
{"smiles": "CC(=O)N[C@@H](CC(C)C)C(=O)N[C@H](C(=O)N[C@@H](Cc1ccccc1)C(=O)N[C@]1(C)CCCCCCC=CCCC[C@@](C)(C(=O)N[C@@H](CO)C(=O)N[C@@H](C)C(=O)N[C@@H](C)C(N)=O)NC(=O)[C@H](CC2CCC2)NC(=O)[C@H](CCC(N)=O)NC(=O)[C@H](C)NC(=O)[C@H](Cc2c[nH]c3ccccc23)NC(=O)[C@H](Cc2ccc(O)cc2)NC(=O)[C@H](CCC(=O)O)NC1=O)[C@@H](C)O", "note": "[ATSP-7041, Ac-Leu17-Thr-Phe-cyclo(R8-Glu-Tyr-Trp-Ala-Gln-Cba-S5)-Ser-Ala-Ala30-NH2]", "values": [{"measurement": "tumor growth (normalized tumor volume)", "result": "significantly suppressed tumor growth"}]}
